Tested on: bradykinin-induced plasma leakage in rat urinary bladder
Assay: bradykinin-induced plasma leakage test in rat urinary bladder
Format: in vivo
Settings: test compound at a concentration of 1.5 μM, i.v. 3 ml/kg, bradykinin 10 nmol/kg i.v.
Protocol: The bradykinin antagonist activity of the dihydropyridine compounds in vivo is evaluated by a plasma leakage test. This test essentially involve determining the concentration of the individual compound required to reduce by 50% the amount of bradykinin-induced plasma leakage in rat urinary bladder, thereby affording characteristic ED50 values for each compounds tested.
More specifically, the assay is carried out as follows. 3.5-week old male Sprague-Dawlew rats are purchased from Charles River Japan Inc. The rats are fed on stock diet (CRF from Charles River Japan, Inc.) and maintained under the standard conditions (temperature, 23±1° C. and humidity 55±5%) for at least 3 days. The rats are fasted overnight prior to the experiments. Each test group consists of 5 rats. […]
Captopril (5 mg/kg of body weight) is intraperitoneally (i.p.) injected to the rats, and 20 min later the rats are anesthetized by an administration of Nembutal (Abbott) ([…] of body weight). […] The absorbance of the extract is measured spectrophotometrically at 605 nm to determined the dye concentration. The effect of the individual test compound is calculated as a percentage of the amount of Evans blue leaked into the urinary bladder as compared to the control (saline for the test compounds).

Q: How did the “inhibition of urinary bladder leakage (Evans blue)” value turn out when COC(=O)C1=C(CCc2ccccc2OC)NC(CC(=O)N2CCN(C3CC4CCC(C3)N4C)CC2)=C(C(=O)OC)C1c1c(Cl)cccc1Cl (stereo not shown) [dimethyl 4-(2,6-dichlorophenyl)-6-[2-(2-methoxyphenyl)ethyl]-2-[4-(8-methyl-8-azabicyclo[3.2.1]oct-3-yl)-1-piperazinyl]carbonylmethyl-1,4-dihydropyridine-3,5-dicarboxylate] was run?
A: did not show significant in vivo activity
